In the supplement of paper PMC3974653:
Where a name gives a salt, the structure may show the parent alone.

System: MTT (mouse pheochromocytoma)
Experiment: IC50 of cell viability (ATP content)
Details: (24 or 48 h)
Procedure, shortened: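 Library compounds in DMSO (23 nl by pintool, 8 concentrations, final 0.5 nM to 46 µM) were applied for 24 or 48 hrs to MTT mouse pheochromocytoma cells that had been cultured overnight at 37°C, 5% CO2 in white 1536-well plates. Cell viability was measured by CellTiter-Glo ATP luminescence, read after 15 minutes, with positive-control wells set at 100% and DMSO wells at 0%. A four-parameter logistic fit of the normalised signals yielded the IC50.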

Row | Structure (SMILES) | IC50 of cell viability
1 | O=C([O-])c1cc2cc(Cc3cccnc3)ccc2o1.[Na+] [FUREGRELATE SODIUM] | > 46 µM
2 | CC1CC(=O)N/N=C1/C2=CC=C(NCC(C)(C)NCC(O)COC3=C(C=CC(=C3)Cl)C#N)C=C2 (stereo not given) [Oberadilol] | > 46 µM
3 | Cc1cc(O)ccc1Cl [p-Chloro-m-cresol] | > 46 µM
4 | COc1cc(C(C)=O)ccc1OCCCN1CCC(c2noc3cc(F)ccc23)CC1 [Iloperidone] | > 46 µM
5 | O=C(O)CNC(=O)CNC(=O)CNC(=O)CSC(=O)c1ccccc1 [BENZOYLMERCAPTOACETYLGLYCYLGLYCYLGLYCINE (Betiatide)] | > 46 µM
6 | CN(CCOc1ccc(NS(C)(=O)=O)cc1)CCc1ccc(NS(C)(=O)=O)cc1 [Dofetilide] | > 46 µM
7 | O=C(Nc1ccc(Oc2ccc(Cl)cc2)c(Cl)c1)c1cc(I)cc(I)c1O [Rafoxanide] | > 46 µM
8 | O[C@@H](CNC[C@H](O)[C@H]1CCc2cc(F)ccc2O1)[C@@H]1CCc2cc(F)ccc2O1 (racemic) [rac Nebivolol Hydrochloride] | > 46 µM
9 | O=C(O)c1cc(/N=N/c2ccc([S+](=O)([O-])Nc3ccccn3)cc2)ccc1O [Salicylazosulfapyridine] | > 46 µM
10 | CC(Cc1ccccc1)NCc1ccccc1Cl (stereo not given) [CLOBENZOREX] | > 46 µM
11 | COc1ccc(C(Cl)=C(c2ccc(OC)cc2)c2ccc(OC)cc2)cc1 [Chlorotrianisene] | > 46 µM
12 | Nc1ccc([S+](=O)([O-])Nc2ccccc2)cc1 [Sulfabenz] | > 46 µM
13 | COc1cc(C(=O)OC(COCCC(C)C)CN2CCOCC2)cc(OC)c1OC (stereo not given) [Amoproxan] | > 46 µM
14 | Cn1cc(O)nc1NC(=O)Nc1cccc(Cl)c1 [FENOBAMUM] | > 46 µM
15 | CCCCCCC(=O)CCCCCC/C=C/C[C@@H](O)[C@H](O)[C@@](N)(CO)C(=O)O | > 46 µM
16 | O=C(O)c1ccccc1O.Oc1cccc2cccnc12 [8-quinolinol and salicylic acid] | > 46 µM
17 | CC(=O)OCC1=C(C(=O)O)N2C(=O)[C@@H](NC(=O)Cc3cccs3)[C@H]2SC1 [Cefalotina] | > 46 µM
18 | CCCCCCCCCCCCCC(=O)OC(C)C [Tetradecanoic acid, 1-methylethyl ester] | > 46 µM
19 | CC(C)CCON=O [Isoamyl nitrite] | > 46 µM
20 | OC(c1ccccc1)(c1ccccc1)C1CCNCC1 [Azacyclonol] | > 46 µM
21 | Cc1ccccc1N1C(=O)c2cc(N)ccc2N/C1=C\F [AFLOQUALONE] | > 46 µM
22 | CNC[C@H](O)c1cccc(O)c1 [Fenilefrina] | > 46 µM

Row | Structure (SMILES) | IC50 of cell viability
23 | CN1CC[C@]23c4c5ccc(O)c4OC2C(O)CCC3[C@H]1C5 (stereo not given in full) [Dihydromorphine] | > 46 µM
24 | CN1CCCN=C1/C=C\c1cccs1.O=C(O)[C@@H](O)[C@@H](O)C(=O)O [Pyrantel tartrate] | > 46 µM
25 | C=CCC1(C(C)CCC)C(=O)NC(=O)NC1=O (stereo not drawn) [R-(+)-Secobarbital] | > 46 µM
26 | C[C@H]1[C@@H]2CC[C@]/3(C)\C=C/C(=O)/C(=C3[C@H]2OC1=O)C [alpha-Santonin] | > 46 µM
27 | COC1=C(N2CCNC(C)C2)C(=CC3=C1N(\C=C(C(O)=O)/C3=O)C4CC4)F (stereo not given) [GATIFLOXACIN] | > 46 µM
28 | CC(=O)Nc1c(I)cc(I)c(C(=O)O)c1I [ACETRIAZOIC ACID] | > 46 µM
29 | OC(c1ccccc1)(c1ccccc1)C1CN2CCC1CC2 (stereo not given) [Quifenadine] | > 46 µM
30 | CC(C)(C)CC(C)(C)c1ccc(O)cc1 [4-(1,1,3,3-Tetramethylbutyl)phenol] | > 46 µM
31 | CCN(CC)C(=O)/C(C#N)=C/c1cc(O)c(O)c([N+](=O)[O-])c1 [Entacapone] | > 46 µM
32 | CC(=O)SC1C\C2=C\C(=O)CCC2(C)C3CCC4(C)C(CCC45CCC(=O)O5)C13 (stereo not given) [Spironolactone] | > 46 µM
33 | O=C1Nc2ccc(Cl)cc2C(c2ccccc2Cl)=NC1O (stereo not given) [Lorazepam] | > 46 µM
34 | CCN(CC)C(=O)N[C@@H]1C[C@@H]2c3cccc4[nH]cc(c34)C[C@H]2N(C)C1 [R(+)-TERGURIDE] | > 46 µM
35 | CC1(Cn2ccnn2)[C@H](C(=O)O)N2C(=O)C[C@H]2[S+]1(=O)[O-] (stereo not given in full) [Tazobactam sodium] | > 46 µM
36 | CCCCCCCN(CC)CCCC(O)c1ccc(N[S+](C)(=O)[O-])cc1 (stereo not given) [Ibutilide] | > 46 µM
37 | O=C([O-])P(=O)([O-])[O-].[Na+].[Na+].[Na+] [FOSCARNET SODIUM] | > 46 µM
38 | O=C1CCC(N2C(=O)c3ccccc3C2=O)C(=O)N1 (racemic) [(+-)-Thalidomide] | > 46 µM
39 | CC(C)(C)c1nnc(N[S+](=O)([O-])c2ccccc2)s1 [GLYBUZOLE] | > 46 µM
40 | CN1[C@@H]2CC[C@@H]1CC(OC1c3ccccc3CCc3ccccc31)C2.O=C(O)CC(O)(CC(=O)O)C(=O)O (stereo not given in full) [Deptropine citrate] | > 46 µM
41 | CCCC[C@H](O)c1ccccc1 [FENIPENTOL] | > 46 µM
42 | CCCCC(C)(O)C/C=C/[C@H]1[C@H](O)CC(=O)[C@@H]1CCCCCCC(=O)OC (stereo not given in full) [Misoprostol] | > 46 µM
43 | C=CCN1CCC23c4c5ccc(O)c4O[C@H]2C(=O)CC[C@@]3(O)C1C5 (stereo not given in full) [NALOXONE] | > 46 µM
44 | CCOC(=O)NC(C)(C)Cc1ccc(Cl)cc1 [Cloforex] | > 46 µM

Row | Structure (SMILES) | IC50 of cell viability
45 | CCCCCCCC/C=C\CCCCCCCC(=O)O [Oleic acid] | > 46 µM
46 | NC/1=N/C2=C([NH]C=N2)C(=S)N1 [THIOGUANINE] | > 46 µM
47 | C[Si](C)(C)O[Si](C)(C)C [Disiloxane, hexamethyl-] | > 46 µM
48 | CC1OC1P(=O)([O-])[O-].[Ca+2] (stereo not given) [FOSFOMYCIN] | > 46 µM
49 | C=CCN1C(=O)C(CC(C)C)NC1=S (stereo not given) [ALBUTOINUM] | > 46 µM
50 | COC1=C(OC)C(=O)C(CCCCCCCCCCO)=C(C)C1=O [Idebenone] | > 46 µM
51 | O=S(=O)([O-])c1ccc(O)cc1 [PHENOLSULFONIC ACID] | > 46 µM
52 | CCCCOc1ccc(CC(=O)NO)cc1 [Bufexamac] | > 46 µM
53 | O=C(OC[C@@H]1O[C@@](O)(COC(=O)c2cccnc2)[C@H](OC(=O)c2cccnc2)[C@H]1OC(=O)c1cccnc1)c1cccnc1 [NICOFURANOSUM] | > 46 µM
54 | CC1CNC(=O)CCC2(C)C(CC(N)=O)C3[N+]/4=C2/C(=C\5C(CCC(N)=O)C(C)(C)C\6=[N+]5[Co-3]47(CC8OC(C(O)C8O)[N]9C=NC%10=C(N)N=CN=C9%10)(N%11/C(=C(C)\C%12=[N+]7\C(=C6)C(CCC(N)=O)C%12(C)CC(N)=O)C(CCC(N)=O)C(C)(CC(N)=O)C3%11C)[N+]%13=C[N](C%14O[C@H](CO)[C@@H](O[P]([O-])(=O)O1)C%14O)C%15=C%13C=C(C)C(=C%15)C)C (stereo not given in full) [COENZYME B12] | > 46 µM
55 | Cc1onc(-c2ccccc2)c1-c1ccc([S+](N)(=O)[O-])cc1 [VALDECOXIB] | > 46 µM
56 | COc1ccc2nc(NC(=O)Nc3ccccc3)sc2c1 [Frentizole] | > 46 µM
57 | C/C=C1/NN(CCCN2CCN(c3cccc(Cl)c3)CC2)C(=O)N1CCOc1ccccc1 [Nefazodone hydrochloride] | > 46 µM
58 | COC(=O)C1=C(C)NC(C)=C(C(=O)OC(C)(C)CN(C)CCC(c2ccccc2)c2ccccc2)C1c1cccc([N+](=O)[O-])c1 (stereo not given) [LERCANIDIPINE HYDROCHLORIDE] | > 46 µM
59 | CC(C)CN(C[C@@H](O)[C@H](Cc1ccccc1)NC(=O)O[C@H]1CCOC1)[S+](=O)([O-])c1ccc(N)cc1 [Amprenavir] | > 46 µM
60 | CC(C)/N=c1\cc2n(-c3ccc(Cl)cc3)c3ccccc3nc-2cc1Nc1ccc(Cl)cc1 [Clofazimine] | > 46 µM
61 | NC(=O)OC[C@H](O)COc1ccc(Cl)cc1 [Chlorphensin carbamate] | > 46 µM
62 | COC(=O)CCc1ccc(OCC(O)CNC(C)C)cc1 (stereo not given) [Esmolol hydrochloride] | > 46 µM
63 | CN(C)CCOc1ccccc1Cc1ccccc1 [PHENYLTOLOXAMINE CITRATE] | > 46 µM
64 | CN[C@@H]1[C@H](O[C@H]2[C@H](O[C@H]3[C@H](O)[C@@H](O)[C@H](NC(=N)N)[C@@H](O)[C@@H]3NC(=N)N)O[C@@H](C)[C@]2(O)C=O)O[C@@H](CO)[C@H](O)[C@H]1O [Streptomycin sulfate] | > 46 µM
65 | O=C([O-])CN(CCN(CC(=O)[O-])CC(=O)[O-])CC(=O)[O-].[Fe+3].[Na+] [Feredato sodico] | > 46 µM
